Measurements as given in patent US20160220569A1, “CDK4/6 Inhibitor Dosage Formulations For The Protection Of Hematopoietic Stem And Progenitor Cells During Chemotherapy” (G1 Therapeutics, Inc., priority 2015, published 2016).
Like-named read-outs stand apart in the source and are kept apart here.

Test: Compound 1 PK dosed Days 1-5 with topotecan
Format: in vivo, human
Conditions: human, plasma, intravenous
Protocol: Analysis of plasma concentration versus time data for calculation of standard pharmacokinetic (PK) parameters following intravenous infusion administration was conducted using Phoenix WinNonlin version 6.3 using a nominal infusion duration and scheduled blood sampling times.

CN1CCN(c2ccc(Nc3ncc4cc5n(c4n3)C3(CCCCC3)CNC5=O)nc2)CC1 [Compound 1, 2′-((5-(4-methylpiperazin-1-yl)pyridin-2-yl)amino)-7′,8′-dihydro-6′H-spiro[cyclohexane-1,9′-pyrazino[1′,2′:1,5]pyrrolo[2,3-d]pyrimidin]-6′-one]
half-life (200 mg/m^2 with Topotecan 1.25 mg/m^2 (Cohort 2), Day 1, Mean, read-out: t½ (converted)): 7.87 h | AUC(0-inf) (200 mg/m^2 with Topotecan 1.25 mg/m^2 (Cohort 2), Day 1, Median, read-out: AUCinf): 2430 ng·h/mL | half-life (200 mg/m^2 with Topotecan 1.25 mg/m^2 (Cohort 2), Day 1, Median, read-out: t½ (converted)): 8.67 h | AUC(0-inf) (200 mg/m^2 with Topotecan 1.25 mg/m^2 (Cohort 2), Day 1, individual subjects, read-out: AUCinf): 2320 ng·h/mL | Cmax (200 mg/m^2 with Topotecan 1.25 mg/m^2 (Cohort 2), Day 1, individual subjects, read-out: Cmax): 1000 ng/mL | half-life (200 mg/m^2 with Topotecan 1.25 mg/m^2 (Cohort 2), Day 1, individual subjects, read-out: t½ (converted)): 6.14 h | Cmax (200 mg/m^2 with Topotecan 1.25 mg/m^2 (Cohort 2), Day 4, Geometric Mean, read-out: Cmax): 739 ng/mL | half-life (200 mg/m^2 with Topotecan 1.25 mg/m^2 (Cohort 2), Day 4, Geometric Mean, read-out: t½ (converted)): 8.84 h | Cmax (200 mg/m^2 with Topotecan 1.25 mg/m^2 (Cohort 2), Day 4, Mean, read-out: Cmax): 752 ng/mL | half-life (200 mg/m^2 with Topotecan 1.25 mg/m^2 (Cohort 2), Day 4, Mean, read-out: t½ (converted)): 8.95 h | half-life (200 mg/m^2 with Topotecan 1.25 mg/m^2 (Cohort 2), Day 4, Median, read-out: t½ (converted)): 9.1 h | Cmax (200 mg/m^2 with Topotecan 1.25 mg/m^2 (Cohort 2), Day 4, individual subjects, read-out: Cmax): 904 ng/mL | half-life (200 mg/m^2 with Topotecan 1.25 mg/m^2 (Cohort 2), Day 4, individual subjects, read-out: t½ (converted)): 7.15 h | AUC(0-inf) (200 mg/m^2 with Topotecan […]^2 (Cohort 1), Day 1, Geo. Mean, read-out: AUCinf): 2120 ng·h/mL | Cmax (200 mg/m^2 with Topotecan […]^2 (Cohort 1), Day 1, Geo. Mean, read-out: Cmax): 932 ng/mL | half-life (200 mg/m^2 with Topotecan […]^2 (Cohort 1), Day 1, Geo. Mean, read-out: t½ (converted)): 5.91 h | AUC(0-inf) (200 mg/m^2 with Topotecan […]^2 (Cohort 1), Day 1, Mean, read-out: AUCinf): 2140 ng·h/mL | Cmax (200 mg/m^2 with Topotecan […]^2 (Cohort 1), Day 1, Mean, read-out: Cmax): 955 ng/mL | half-life (200 mg/m^2 with Topotecan […]^2 (Cohort 1), Day 1, Mean, read-out: t½ (converted)): 5.92 h | AUC(0-inf) (200 mg/m^2 with Topotecan […]^2 (Cohort 1), Day 1, Median, read-out: AUCinf): 2140 ng·h/mL | Cmax (200 mg/m^2 with Topotecan […]^2 (Cohort 1), Day 1, Median, read-out: Cmax): 955 ng/mL | half-life (200 mg/m^2 with Topotecan […]^2 (Cohort 1), Day 1, Median, read-out: t½ (converted)): 5.92 h | AUC(0-inf) (200 mg/m^2 with Topotecan […]^2 (Cohort 1), Day 1, individual subjects, read-out: AUCinf): 1840 ng·h/mL | half-life (200 mg/m^2 with Topotecan […]^2 (Cohort 1), Day 1, individual subjects, read-out: t½ (converted)): 5.6 h | Cmax (200 mg/m^2 with Topotecan […]^2 (Cohort 1), Day 4, Geometric Mean, read-out: Cmax): 993 ng/mL | half-life (200 mg/m^2 with Topotecan […]^2 (Cohort 1), Day 4, Geometric Mean, read-out: t½ (converted)): 7.98 h | Cmax (200 mg/m^2 with Topotecan […]^2 (Cohort 1), Day 4, Mean, read-out: Cmax): 999 ng/mL | half-life (200 mg/m^2 with Topotecan […]^2 (Cohort 1), Day 4, Mean, read-out: t½ (converted)): 8.06 h | Cmax (200 mg/m^2 with Topotecan […]^2 (Cohort 1), Day 4, Median, read-out: Cmax): 999 ng/mL | half-life (200 mg/m^2 with Topotecan […]^2 (Cohort 1), Day 4, Median, read-out: t½ (converted)): 8.06 h | half-life (200 mg/m^2 with Topotecan […]^2 (Cohort 1), Day 4, individual subjects, read-out: t½ (converted)): 6.96 h | AUC(0-inf) (Cohort 1 (Topotecan […]^2), Compound 1 200 mg/m^2, Day 1, mean, read-out: AUCinf averaged): 2140 ng·h/mL | Cmax (Cohort 1 (Topotecan […]^2), Compound 1 200 mg/m^2, Day 1, mean, read-out: Cmax averaged): 955 ng/mL | half-life (Cohort 1 (Topotecan […]^2), Compound 1 200 mg/m^2, Day 1, mean, read-out: Half-lives averaged (converted)): 5.92 h | half-life (Cohort 1 (Topotecan […]^2), Compound 1 200 mg/m^2, Day 4, mean, read-out: Half-lives averaged (converted)): 8.06 h | Cmax (Cohort 1 (Topotecan […]^2), Compound 1 200 mg/m^2, Day 4, mean, read-out: average Cmax): 999 ng/mL | AUC(0-inf) (Cohort 2 (Topotecan 1.25 mg/m^2), Compound 1 200 mg/m^2, Day 1, mean, read-out: AUCinf averaged): 2490 ng·h/mL | Cmax (Cohort 2 (Topotecan 1.25 mg/m^2), Compound 1 200 mg/m^2, Day 1, mean, read-out: Cmax averaged): 904 ng/mL | half-life (Cohort 2 (Topotecan 1.25 mg/m^2), Compound 1 200 mg/m^2, Day 1, mean, read-out: Half-lives averaged (converted)): 7.87 h | half-life (Cohort 2 (Topotecan 1.25 mg/m^2), Compound 1 200 mg/m^2, Day 4, mean, read-out: Half-lives averaged (converted)): 8.95 h | Cmax (Cohort 2 (Topotecan 1.25 mg/m^2), Compound 1 200 mg/m^2, Day 4, mean, read-out: average Cmax): 752 ng/mL | concentration at 24.5 h (Cohort 2 (Topotecan 1.25 mg/m^2), Day 1, mean, read-out: concentration at 24.5 hours after the start of infusion, averaging): 19.5 ng/mL | concentration at 24.5 h (Cohort 2 (Topotecan 1.25 mg/m^2), Day 4, mean, read-out: concentration at 24.5 hours after dosing, averaged): 22.7 ng/mL | AUC(0-inf) (Cohort 3 (Topotecan 0.75 mg/m^2), Compound 1 200 mg/m^2, Day 1, mean, read-out: AUCinf averaged): 2200 ng·h/mL | Cmax (Cohort 3 (Topotecan 0.75 mg/m^2), Compound 1 200 mg/m^2, Day 1, mean, read-out: Cmax averaged): 1140 ng/mL | half-life (Cohort 3 (Topotecan 0.75 mg/m^2), Compound 1 200 mg/m^2, Day 1, mean, read-out: Half-lives averaged (converted)): 7.4 h | half-life (Cohort 3 (Topotecan 0.75 mg/m^2), Compound 1 200 mg/m^2, Day 4, mean, read-out: Half-lives averaged (converted)): 8.81 h | Cmax (Cohort 3 (Topotecan 0.75 mg/m^2), Compound 1 200 mg/m^2, Day 4, mean, read-out: average Cmax): 1330 ng/mL | concentration at 24.5 h (Cohort 3 (Topotecan 0.75 mg/m^2), Day 1, mean, read-out: concentration at 24.5 hours after the start of infusion, averaging): 13.3 ng/mL | concentration at 24.5 h (Cohort 3 (Topotecan 0.75 mg/m^2), Day 4, mean, read-out: concentration at 24.5 hours after dosing, averaged): 18.2 ng/mL
